These results are taken from patent publication US20250084087A1, “BICYCLIC HETEROCYCLES AS MRGPRX2 ANTAGONISTS” (Incyte Corporation, priority 2023, published 2025).

Holding throughout (assay type): cell-based
The target of assay [1] is T1, MRGPRX2 (Homo sapiens, UniProt Q96LB1).
T1 sequence (Q96LB1 1-330): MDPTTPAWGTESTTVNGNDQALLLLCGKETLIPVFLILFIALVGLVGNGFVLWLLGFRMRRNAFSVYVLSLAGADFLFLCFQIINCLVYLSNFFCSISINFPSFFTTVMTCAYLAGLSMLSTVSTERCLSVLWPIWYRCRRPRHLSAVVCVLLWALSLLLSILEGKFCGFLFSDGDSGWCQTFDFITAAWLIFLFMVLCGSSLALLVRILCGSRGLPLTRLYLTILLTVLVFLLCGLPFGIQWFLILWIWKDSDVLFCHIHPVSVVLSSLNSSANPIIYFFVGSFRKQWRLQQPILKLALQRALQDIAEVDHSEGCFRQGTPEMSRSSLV
The assay can be described thus: MRGPRX2 FLIPR calcium mobilization assay. The settings on record: CHO-K1 cells stably expressing human MRGPRX2; Ca2+ release; agonist Cortistatin-14 at EC80. More on the design: host or cells: CHO-K1. In outline:
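CHO-K1 cells stably expressing the receptor, loaded with Calcium 6 dye, then preincubated 30 min at r.t. with compound in HBSS/20 mM HEPES pH 7.4. Cortistatin-14 at EC80 added; baseline-adjusted maximum RFU read over 110 s. IC50 from 3- or 4-parameter Hill fit.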

Assay [2] deals with T1, MRGPRX2. Kind of assay: MRGPRX2 IP1 HTRF assay. Also noted: host or cells: CHO-K1. The following applies: CHO-K1 cells stably expressing human MRGPRX2; IP1 accumulation; agonist Cortistatin 14 1 μM. The method in brief: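 CHO-K1 cells stably expressing human MRGPRX2, preincubated with compound 1 h at 37 °C, then stimulated with 1 μM Cortistatin 14 for 1 h. IP1 measured by HTRF against standard curve, normalized to DMSO and reference antagonist controls; IC50 from 3- or 4-parameter Hill fit.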
In general terms: TR-FRET usually uses a lanthanide donor and a delayed reading to cut background.

Assay [3] concerns the target T1, MRGPRX2. The assay can be described thus: MRGPRX2 β-Arrestin recruitment assay (PathHunter). Also noted: host or cells: CHO-K1 (PathHunter). The following applies: PathHunter CHO-K1 MRGPRX2 β-Arrestin cell line; agonist Cortistatin 14 0.25 μM. The method in brief:
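CHO-K1 PathHunter cells co-expressing ProLink-tagged MRGPRX2 and enzyme-acceptor-tagged β-arrestin were preincubated with compound 1 h at 37° C., then stimulated with cortistatin-14 (0.25 μM final) for 90 min. Enzyme-complementation luminescence read after 1 h detection; data normalized to DMSO and reference antagonist, IC50 from 3- or 4-parameter Hill fit.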
Background: Activated receptors often draw arrestin, which recruitment assays turn into a signal.

Broadly, the IC50 is the concentration needed to halve the response being measured. With `NS(=O)(=O)N1CC(CNc2cc(C(F)(F)F)nc3cc(C4CC4)nn23)(n2cccn2)C1` [Example 94, 3-(((2-Cyclopropyl-5-(trifluoromethyl)pyrazolo[1,5-a]pyrimidin-7-yl)amino)methyl)-3-(1H-pyrazol-1-yl)azetidine-1-sulfonamide], the IC50 fell in the range of 0.1 to 100 nM on MRGPRX2 [1], 100 to 1000 nM at MRGPRX2 [2] and 100 to 1000 nM at MRGPRX2 [3].
For `O=C(N[C@H]1CC[C@H](O)CC1)N1CC(CNc2cc(C(F)(F)F)nc3cc(Br)nn23)(c2ccc(F)cc2)C1` [Example 96, 3-(((2-Bromo-5-(trifluoromethyl)pyrazolo[1,5-a]pyrimidin-7-yl)amino)methyl)-3-(4-fluorophenyl)-N-((1r,4r)-4-hydroxycyclohexyl)azetidine-1-carboxamide], the half-maximal inhibitory concentration (IC50) at MRGPRX2 [1], at MRGPRX2 [2] and on MRGPRX2 [3] was 0.1 to 100 nM each time.
Take `COc1cc(NCC2(c3ccc(F)cc3)CN(S(N)(=O)=O)C2)n2nc(C(F)(F)F)cc2n1` [Example 106, 3-(4-Fluorophenyl)-3-(((5-methoxy-2-(trifluoromethyl)pyrazolo[1,5-a]pyrimidin-7-yl)amino)methyl)azetidine-1-sulfonamide]: the IC50 at MRGPRX2 [1], at MRGPRX2 [2] and at MRGPRX2 [3] was 0.1 to 100 nM throughout.
